For experiment [1], the system named is P388 cell line. Briefly: P388 murine lymphocytic leukemia cell assay. To be noted: Mus musculus, P388, 120 h, read-out: P388 Assay ED50. The experiment is classed as cell-based. As for the experimental part:
Cells from a P388 cell line (CellGate, Inc., Sunnyvale, Calif.) are grown in RPMI 1640 cell medium containing fetal calf serum (10%), L-glutamine, penicillin, streptomycin and are split twice weekly. All compounds are first diluted with DMSO. Later serial dilutions are done with a phosphate buffer solution (HYQ DPBS modified phosphate buffered saline). All dilutions are done in glass vials and the final DMSO concentration is always below 0.5% by volume. Final two-fold dilutions are done in a 96 well plate using cell media so that each well contains 50 μL. All compounds are assayed in quadruplicate over 12 concentrations. Cell concentration is measured using a hemacytometer and the final cell concentration is adjusted to 1×10^4 cells/mL with cell medium. The resulting solution of cells (50 μL) is then added to each well and the plates are incubated for 5 days in a 37° C., 5% CO2, humidified incubator (Sanyo CO2 incubator). MTT solution (3-[4,5-dimethylthiazol-2-yl]-2,5-diphenyltetrazolium bromide, 10 μL) is then added to each well and the plates are re-incubated under identical conditions for 2 h. To each well is then added acidified isopropanol (150 μL of i-PrOH solution containing 0.05 N HCl) and mixed thoroughly. The plates are then scanned at 595 nm and the absorbances are read (Wallac Victor 1420 Multilabel Counter). The resulting data is then analyzed to determine an ED50 value using the Prism software package (GraphPad).

In experiment [2] the target is T1, PKCδ-C1B (Mus musculus, UniProt P28867).
T1 construct: made in house
T1 sequence (P28867 231-281 limits assumed): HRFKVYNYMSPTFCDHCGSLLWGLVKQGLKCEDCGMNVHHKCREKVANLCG
Briefly: PKCδ-C1B assay. In kind it is binding. As for the experimental part:
Phosphatidyl serine vesicles are prepared by the addition of phosphatidyl serine (10 mg/mL in chloroform, 0.4 mL) to a glass test tube followed by removal of the chloroform under a stream of nitrogen (5 min). […] The resulting solution is stored over ice. […] Stock solutions of compounds are diluted with absolute ethanol in glass in serial fashion. […] The tubes are incubated at 37° C. for 90 min. and then put on ice for 5 min. Each tube is then filtered separately through a pre-soaked filter disc. […] The filter is subsequently rinsed with cold 20 mM TRIS buffer (5 mL) dropwise. […] The filters are immediately counted in a scintillation counter (Beckman LS 6000SC). Counts per minute are averaged among three trials at each concentration.

Experiment [3] has as its target PKC purified from the rat brain. Briefly: PKC binding assay. Particulars: for Ki: competitive inhibition of [3H]-PDBu binding, read-out: PKC Binding constant. Here is the method:
Filters (Whatman GF-B, 21 mm dia.) are soaked for 1 hour in a solution containing deionized water (97 mL), and 10% polyethyleneamine (3 mL). An assay buffer solution is prepared by the combining of TRIS (1M, pH 7.4, 1 mL), KCl (1M, 2 μL), CaCl2 (0.1M, 30 μL), bovine serum albumin (40 mg), and diluting to 20 mL with deionized water and stored on ice. Phosphatidyl serine vesicles are prepared by the addition of phosphatidyl serine (10 mg/mL in chloroform, 0.4 mL) to a glass test tube followed by removal of the chloroform under a stream of nitrogen (5 min). To this viscous liquid is added a portion of the prepared assay buffer (4 mL) and the resulting mixture is then transferred to a plastic tube. This tube is then sonicated (Branson Sonifier 250, power=6, 40% duty cycle) four times for 30 sec. with a 30 sec. rest in-between sonications. The resulting solution is stored over ice. PKC is prepared by the addition of cooled assay buffer (10 mL) to PKC (25 mL) purified from the rat brain by the method of Mochly-Rosen et al. (J. Biol. Chem. 1987, 262, 2291) and then stored on ice. Stock solutions of compounds are diluted with absolute ethanol in glass in serial fashion.
Each plastic assay incubation tube is made to contain prepared phosphatidyl serine vesicles (60 μL), prepared PKC solution (200 μL) and analog ([…] plus EtOH (20-0 μL) for a total volume of 20 μL). Lastly, tritiated phorbol dibutryate ([3H]-PDBu) (30 nM, 20 μL) is added to each tube. The assay is carried out using 7-10 analog concentrations, each in triplicate. Non-specific binding is measured in 1-3 tubes by the substitution of phorbol myristate acetate (PMA) (1 mM, 5 μL) and EtOH (15 μL) for the analog/EtOH combination. The tubes are incubated at 37° C. for 90 min. and then put on ice for 5 min. Each tube is then filtered separately through a pre-soaked filter disc. The filter is subsequently rinsed with cold 20 mM TRIS buffer (5 mL) dropwise. The filters are then put in separate scintillation vials and Universol® scintillation fluid is added (3 mL). The filters are immediately counted in a scintillation counter (Beckman LS 6000SC). Counts per minute are averaged among three trials at each concentration. The data is then plotted using a least square fit algorithm with the Macintosh version of Kaleidagraph® (Abelbeck Software) and an IC50 (defined as the concentration of analog required to displace half of the specific PDBu binding to PKC) is calculated. The IC50 then allows determination of the Ki for the analog from the equation: Ki=IC50/(1+[PDBu])/Kd of PDBu).

Experiment [4] concerns the target PKC purified from rat brain. Briefly: Protein kinase C (isozyme mix) assay. The experiment is classed as binding. To be noted: 37° C., 90 min, read-out: Kd of [H^3]-PDBu. As for the experimental part: In one approach, anticancer activity of compounds of the invention can be assessed using the protein kinase C assay detailed in Example 5. In this assay, Ki values are determined for analogues based on competition with radiolabeled phorbol 12,13-dibutyrate for binding to a mixture of PKC isoenzymes. PKC enzymes are implicated in a variety of cellular responses which may be involved in the activity of the bryostatins.
The following procedure was used, based on a modification of a previous procedure described by Tanaka et al. (1986). Filters (Whatman GF-B, 21 mm diam.) are soaked for 1 h in a solution containing deionized water (97 mL), and 10% polyethyleneamine (3 mL). A filtering buffer solution containing TRIS (1M, pH 7.4, 10 mL) and water (490 mL) is prepared and cooled on ice. […] Non-specific binding is measured in 1-3 tubes by the substitution of phorbol myristate acetate (PMA) (1 mM, 5 μL) and EtOH (15 μL) for the analogue/EtOH combination. […] The filters are immediately counted in a scintillation counter (Beckman LS 6000SC). […] The data is then plotted using a least squares fit algorithm with the Macintosh version of Kaleidagraph© (Abelbeck Software) and an IC50 (defined as the concentration of analogue required to displace half of the specific PDBU binding to PKC) is calculated. […]

Molecules are shown by their SMILES. Where two headings read alike, the source gives them in different places.

What is called Kd is the free concentration of one partner at which half of the binding sites on the other are occupied at equilibrium, for simple one-to-one binding.

Regarding `CCCCCCC(=O)O[C@H]1/C(=C/C(=O)OC)C[C@H]2C[C@H]([C@@H](C)O)OC(=O)C[C@H](O)C[C@@H]3CCC[C@H](C[C@@H]4CCO[C@H](/C=C/C(C)(C)[C@]1(O)O2)O4)O3` [Formula 702.3], in experiment [1], the EC50 turned out to be 38 nM. In addition, in experiment [2], the Ki was found to be 35 nM. Regarding `CCCC(=O)O[C@@H]1[C@@H](C)[C@@]2(O)[C@@H](C=C(CO)C[C@]3(O)C(=O)C(C)=C[C@@H]23)[C@@H]2C(C)(C)[C@]12OC(=O)CCC` [[3H]—PDBu, tritiated phorbol 12,13-dibutyrate, reference compound], the figures for the Kd in experiment [3] (read-out: PKC Binding constant (Kd of [3H]-PDBu)) and in experiment [4] were 1.17 nM and 1.55 nM, respectively. On to `C=CCC1C[C@H]2C[C@H]3CCC[C@@H](C[C@@H](O)CC(=O)O[C@@H](CO)C[C@@H]4C/C(=C\C(=O)OC)[C@H](OC(=O)CCCCCCC)[C@@](O)(O4)C(C)(C)/C=C/[C@@H](O1)O2)O3` (some centres unmarked) [Formula 22A], for which the Ki in experiment [3] was determined as 0.67 nM. The compound `CCCC(=O)O[C@@H]1[C@@H](C)[C@@]2(O)[C@@H](C=C(CO)C[C@]3(O)C(=O)C(C)=C[C@@H]23)[C@@H]2C(C)(C)[C@]12OC(=O)CCC` [Phorbol dibutyrate, phorbol 12,13-dibutyrate, reference compound] returned a Kd in experiment [2] (Kd value) of 1.7 nM.

For the compound `C=CCC1C[C@H]2CCOCC[C@@H](O)CC(=O)O[C@@H](CO)C[C@@H]3C/C(=C\C(=O)OC)[C@H](OC(=O)CCCCCCC)[C@@](O)(O3)C(C)(C)/C=C/[C@@H](O1)O2` (some centres unmarked) [Formula 20A], the Ki in experiment [3] amounted to 2.6 nM. In the case of `COC(=O)/C=C1\C[C@H]2C[C@H]([C@@H](C)O)OC(=O)C[C@H](O)C[C@@H]3CCC[C@H](C[C@@H]4CCO[C@H](/C=C/C(C)(C)[C@](O)(O2)[C@H]1OC(C)=O)O4)O3` [Formula 702.2], the EC50 in experiment [1] (5 days incubation, MTT) worked out at 181 nM.

These data come from US8735609B2, “Bryostatin analogues, synthetic methods and uses” (The Board of Trustees of the Leland Stanford Junior …, priority 2007, dated 2014).
